Measured values reported in PubChem BioAssay AID248 (DTP/NCI, 2004).
Where “and” joins values, the source holds several entries; their conditions need not be identical. Identical values can stand only once. Inconclusive results and toxic doses are left out. No stated cut-off is given here; in the data, active means T/C of 150% or more; inactive means T/C below 125%.

Tested on: L1210 leukemia ip in BDF1 mice, survival T/C
Experiment: NCI In Vivo Anticancer Drug Screen. Data for tumor model L1210 Leukemia (intraperitoneal) in B6D2F1 (BDF1) mice
Conditions: endpoint: mean survival time, higher = longer survival
Method in brief: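 Tumor cells were implanted, animals were treated, and survival was followed. The result divides the treated measurement by the vehicle-control measurement.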

[1] = dose: 100.0 mg/kg/injection, schedule: Q04DX002 (ip), vehicle: saline
[2] = dose: 200.0 mg/kg/injection, schedule: Q04DX002 (ip), vehicle: saline
[3] = dose: 100.0 mg/kg/injection, schedule: Q01DX009 (ip), vehicle: Klucel (hydroxypropylcellulose) (HPC)
[4] = dose: 200.0 mg/kg/injection, schedule: Q01DX009 (ip), vehicle: Klucel (hydroxypropylcellulose) (HPC)
[5] = dose: 100.0 mg/kg/injection, schedule: Q01DX001 (ip), vehicle: saline
[6] = dose: 200.0 mg/kg/injection, schedule: Q01DX001 (ip), vehicle: saline
[7] = dose: 75.0 mg/kg/injection, schedule: Q01DX001 (ip), vehicle: saline
[8] = dose: 150.0 mg/kg/injection, schedule: Q01DX001 (ip), vehicle: saline
[9] = dose: 400.0 mg/kg/injection, schedule: Q01DX009 (ip), vehicle: Klucel (hydroxypropylcellulose) (HPC)
[10] = dose: 100.0 mg/kg/injection, schedule: Q01DX009 (ip), vehicle: saline with Tween-80
[11] = dose: 100.0 mg/kg/injection, schedule: Q04DX003 (ip), vehicle: saline with Tween-80

Measured: T/C

NCCc1ccc(O)c(CO)c1
inactive: [1] 105 % of control | [2] 86 % of control | dose: 400.0 mg/kg/injection, schedule: Q04DX002 (ip), vehicle: saline 105 % of control

CC(=O)OCC(OC(C)=O)C1(O)CCC2C3CCC4=CC(=O)CCC4(C)C3CCC21C (stereo not drawn)
inactive: dose: 50.0 mg/kg/injection, schedule: Q01DX009 (ip), vehicle: Klucel (hydroxypropylcellulose) (HPC) 100 % of control | [3] 94 % of control and 107 % of control | [4] 93 % of control

Nc1c(Cl)cc2c(c1Br)Cc1ccccc1-2
inactive: dose: 50.0 mg/kg/injection, schedule: Q01DX001 (ip), vehicle: carboxymethylcellulose (CMC) 107 % of control | dose: 100.0 mg/kg/injection, schedule: Q01DX001 (ip), vehicle: carboxymethylcellulose (CMC) 107 % of control | dose: 200.0 mg/kg/injection, schedule: Q01DX001 (ip), vehicle: carboxymethylcellulose (CMC) 117 % of control | dose: 400.0 mg/kg/injection, schedule: Q01DX001 (ip), vehicle: carboxymethylcellulose (CMC) 107 % of control

N=C(N)CCN
inactive: [5] 98 % of control | [6] 102 % of control

CN(C)/C=C(\C#N)C=O
inactive: [7] 103 % of control | [8] 101 % of control

COc1cc([N+](=O)[O-])c(O)cc1O
inactive: dose: 100.0 mg/kg/injection, schedule: Q04DX003 (ip), vehicle: saline 101 % of control | dose: 200.0 mg/kg/injection, schedule: Q04DX003 (ip), vehicle: saline 100 % of control | dose: 400.0 mg/kg/injection, schedule: Q04DX003 (ip), vehicle: saline 96 % of control

CCCCCCCCCCC1CCC2CCC3CCCC4CCC1C2C34 (stereo not drawn)
inactive: dose: 25.0 mg/kg/injection, schedule: Q04DX003 (ip), vehicle: acetone 96 % of control | dose: 50.0 mg/kg/injection, schedule: Q04DX003 (ip), vehicle: acetone 88 % of control | [5] 88 % of control | dose: 100.0 mg/kg/injection, schedule: Q04DX003 (ip), vehicle: acetone 86 % of control | [6] 90 % of control

O=C(Nc1ccc(Br)cc1)Oc1ccc(Nc2ccccc2)cc1
inactive: [3] 98 % of control | [4] 89 % of control | [9] 98 % of control

CCOc1ccccc1NC(=O)C(Br)C(Br)C(=O)O (stereo not drawn)
inactive: [10] 96 % of control | [11] 100 % of control | dose: 200.0 mg/kg/injection, schedule: Q01DX009 (ip), vehicle: saline with Tween-80 97 % of control | dose: 200.0 mg/kg/injection, schedule: Q04DX003 (ip), vehicle: saline with Tween-80 95 % of control | dose: 400.0 mg/kg/injection, schedule: Q01DX009 (ip), vehicle: saline with Tween-80 96 % of control | dose: 400.0 mg/kg/injection, schedule: Q04DX003 (ip), vehicle: saline with Tween-80 101 % of control

CC(C)CN(OC(=O)c1ccccc1)[N+](=O)[O-]
inactive: dose: 50.0 mg/kg/injection, schedule: Q04DX002 (ip), vehicle: saline 94 % of control | [1] 108 % of control | [2] 102 % of control

Nc1nc(N)nc(-c2ccccc2N=NNc2ccc([N+](=O)[O-])cc2)n1
inactive: dose: 100.0 mg/kg/injection, schedule: Q04DX002 (ip), vehicle: Klucel (hydroxypropylcellulose) (HPC) 97 % of control | dose: 200.0 mg/kg/injection, schedule: Q04DX002 (ip), vehicle: Klucel (hydroxypropylcellulose) (HPC) 93 % of control | dose: 400.0 mg/kg/injection, schedule: Q04DX002 (ip), vehicle: Klucel (hydroxypropylcellulose) (HPC) 89 % of control

CC(Br)(c1ccccc1)[P+](c1ccccc1)(c1ccccc1)c1ccccc1 (stereo not drawn)
inactive: dose: 15.0 mg/kg/injection, schedule: Q01DX001 (ip), vehicle: carboxymethylcellulose (CMC) 96 % of control | dose: 30.0 mg/kg/injection, schedule: Q01DX001 (ip), vehicle: carboxymethylcellulose (CMC) 101 % of control

C1CCC(=NN=C2CCCCC2)CC1
inactive: dose: 100.0 mg/kg/injection, schedule: Q01DX009 (sc), vehicle: olive oil, sesame oil, peanut oil 103 % of control | dose: 100.0 mg/kg/injection, schedule: Q04DX003 (sc), vehicle: olive oil, sesame oil, peanut oil 100 % of control | dose: 200.0 mg/kg/injection, schedule: Q01DX009 (sc), vehicle: olive oil, sesame oil, peanut oil 100 % of control | dose: 200.0 mg/kg/injection, schedule: Q04DX003 (sc), vehicle: olive oil, sesame oil, peanut oil 106 % of control | dose: 400.0 mg/kg/injection, schedule: Q01DX009 (sc), vehicle: olive oil, sesame oil, peanut oil 101 % of control | dose: 400.0 mg/kg/injection, schedule: Q04DX003 (sc), vehicle: olive oil, sesame oil, peanut oil 105 % of control

OC1CC=CC=CC1
inactive: [7] 94 % of control | [8] 97 % of control

OCC1CC(n2cnc3c(Cl)ncnc32)C(O)C1O (stereo not drawn)
inactive: dose: 75.0 mg/kg/injection, schedule: Q01DX009 (ip), vehicle: saline with Tween-80 107 % of control | [10] 101 % of control | dose: 150.0 mg/kg/injection, schedule: Q01DX009 (ip), vehicle: saline with Tween-80 92 % of control

O=C(N=C=S)c1ccccc1
inactive: dose: 100.0 mg/kg/injection, schedule: Q01DX009 (ip), vehicle: other 95 % of control | dose: 200.0 mg/kg/injection, schedule: Q01DX009 (ip), vehicle: other 87 % of control | dose: 400.0 mg/kg/injection, schedule: Q01DX009 (ip), vehicle: other 89 % of control

CC(=O)N(N=O)c1ccc(Cl)cc1[N+](=O)[O-]
inactive: dose: 50.0 mg/kg/injection, schedule: Q01DX009 (ip), vehicle: saline 101 % of control | dose: 100.0 mg/kg/injection, schedule: Q01DX009 (ip), vehicle: saline 104 % of control

O=C(CCl)NCCCNC(=O)CCl
inactive: dose: 6.25 mg/kg/injection, schedule: Q01DX009 (ip), vehicle: other 94 % of control | dose: 12.5 mg/kg/injection, schedule: Q01DX009 (ip), vehicle: other 94 % of control | dose: 25.0 mg/kg/injection, schedule: Q01DX009 (ip), vehicle: other 94 % of control | dose: 25.0 mg/kg/injection, schedule: Q04DX003 (ip), vehicle: saline with Tween-80 98 % of control | dose: 50.0 mg/kg/injection, schedule: Q04DX003 (ip), vehicle: saline with Tween-80 102 % of control | [11] 111 % of control

C=CCN(CC=C)P(=O)(N1CC1)N1CC1
inactive: dose: 6.2 mg/kg/injection, schedule: Q01DX001 (ip), vehicle: saline 88 % of control | dose: 12.5 mg/kg/injection, schedule: Q01DX001 (ip), vehicle: saline 88 % of control | dose: 25.0 mg/kg/injection, schedule: Q01DX001 (ip), vehicle: saline 88 % of control | dose: 50.0 mg/kg/injection, schedule: Q01DX001 (ip), vehicle: saline 88 % of control

CC(=O)OC1CCC2(C)C(=CCC3C2CCC2(C)C3CC3C(c4ccccc4Br)=NN(c4ccccc4)C32C#N)C1 (stereo not drawn)
inactive: dose: 3.0 mg/kg/injection, schedule: Q04DX002 (ip), vehicle: Klucel (hydroxypropylcellulose) (HPC) 106 % of control | dose: 6.0 mg/kg/injection, schedule: Q04DX002 (ip), vehicle: Klucel (hydroxypropylcellulose) (HPC) 94 % of control and 107 % of control | dose: 12.0 mg/kg/injection, schedule: Q04DX002 (ip), vehicle: Klucel (hydroxypropylcellulose) (HPC) 100 % of control | dose: 25.0 mg/kg/injection, schedule: Q04DX002 (ip), vehicle: Klucel (hydroxypropylcellulose) (HPC) 104 % of control | dose: 50.0 mg/kg/injection, schedule: Q04DX002 (ip), vehicle: Klucel (hydroxypropylcellulose) (HPC) 114 % of control

CCOc1ccc(NC(=O)Oc2ccc(SC)c(C)c2)cc1
inactive: [3] 91 % of control | [4] 91 % of control | [9] 96 % of control
